Laboratory results as given in ChEMBL document CHEMBL4819103, “Discovery of selective fragment-sized immunoproteasome inhibitors” (Eur J Med Chem, 2021).
Values belong to the compound of their own block, whether it stands above or below them. Active and inactive are the calls of the source. The rule behind the calls is not given here.

Columns and labels:
[1] = target: T1, Proteasome subunit beta type-8 (Homo sapiens) (UniProt P28062); test: Inhibition of human chymotrypsin-like beta 5i subunit of iCP assessed as residual activity using suc-LLVY-AMC as flurogenic substrate at 10 uM for 90 mins by fluorescence-based assay
T1 sequence (whole entry): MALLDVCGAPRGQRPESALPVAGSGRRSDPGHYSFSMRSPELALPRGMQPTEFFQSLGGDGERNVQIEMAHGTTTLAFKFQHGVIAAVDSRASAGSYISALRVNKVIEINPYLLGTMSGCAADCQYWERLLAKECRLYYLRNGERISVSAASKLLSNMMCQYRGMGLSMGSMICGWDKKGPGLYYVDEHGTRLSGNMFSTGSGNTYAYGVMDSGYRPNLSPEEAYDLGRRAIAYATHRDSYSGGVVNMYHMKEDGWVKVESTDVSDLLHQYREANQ

[2] = target: T2, Proteasome Macropain subunit MB1 (Homo sapiens) (UniProt P28074); test: Inhibition of beta 5 chymotrypsin-like activity (unknown origin) at 100 uM using Suc-LLVY-AMC as substrate for 90 mins by fluorescence based assay; parameters: scale not given: the % may be the effect or the level left
T2 sequence (whole entry): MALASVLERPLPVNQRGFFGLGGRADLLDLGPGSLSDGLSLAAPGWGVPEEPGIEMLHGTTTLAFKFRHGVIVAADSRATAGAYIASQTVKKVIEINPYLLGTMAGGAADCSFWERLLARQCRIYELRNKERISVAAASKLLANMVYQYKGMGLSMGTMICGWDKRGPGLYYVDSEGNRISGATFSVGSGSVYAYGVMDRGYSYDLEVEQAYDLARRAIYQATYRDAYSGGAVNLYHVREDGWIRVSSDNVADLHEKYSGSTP

[3] = Thiol reactivity of the compound assessed as TNB2-depletion at 200 uM measured upto 24 hrs by TNB2-depletion assay; assay type: physicochemical
[4] = target: T1, Proteasome subunit beta type-8 (Homo sapiens); test: Inhibition of human chymotrypsin-like beta 5i subunit of iCP assessed as cysteine-48 labelling by Ellman's method
[5] = target: T3, Proteasome subunit beta type-8 (Homo sapiens, UniProt P28062); test: Inhibition of human chymotrypsin-like beta 5i subunit of iCP using suc-LLVY-AMC as flurogenic substrate for 90 mins by fluorescence-based assay
T3 sequence (P28062 whole entry): T1 sequence (whole entry)

[6] = target: T4, Proteasome Macropain subunit MB1 (Homo sapiens, UniProt P28074); test: Inhibition of beta 5 chymotrypsin-like activity (unknown origin) using Suc-LLVY-AMC as substrate for 90 mins by fluorescence based assay
T4 sequence (P28074 whole entry): T2 sequence (whole entry)

[7] = Solubility of the compound in DMSO; assay type: physicochemical
[8] = species on record: Homo sapiens; test: Selectivity ratio of IC50 for human beta1i subunit of iCP Pto IC50 for human chymotrypsin-like beta 5i subunit of iCP
[9] = species on record: Homo sapiens; test: Selectivity ratio of IC50 for human beta2i subunit of iCP Pto IC50 for human chymotrypsin-like beta 5i subunit of iCP
[10] = species on record: Homo sapiens; test: Selectivity ratio of IC50 for human beta2 subunit of cCP Pto IC50 for human chymotrypsin-like beta 5i subunit of iCP
[11] = Glutathione reactivity of compound at pH 7.5 measured by HPLC-MS assay; assay type: physicochemical
[12] = Glutathione reactivity of compound at pH 8 measured by HPLC-MS assay; assay type: physicochemical
[13] = Glutathione reactivity of compound at pH 8.5 measured by HPLC-MS assay; assay type: physicochemical
[14] = Glutathione reactivity of compound at pH 9 measured by HPLC-MS assay; assay type: physicochemical
[15] = target: T1, Proteasome subunit beta type-8 (Homo sapiens); test: Inhibition of human chymotrypsin-like beta 5i subunit of iCP assessed as residual activity using suc-LLVY-AMC as flurogenic substrate at 150 uM for 90 mins by fluorescence-based assay
[16] = target: T1, Proteasome subunit beta type-8 (Homo sapiens); test: Inhibition of human chymotrypsin-like beta 5i subunit of iCP assessed as residual activity using suc-LLVY-AMC as flurogenic substrate at 100 uM for 90 mins by fluorescence-based assay
[17] = Solubility of the compound in buffer; assay type: physicochemical

Compound: O=C(CCc1cccnc1)Nc1cccc2[nH]c(=S)oc12
solubility [7]: Insoluble

Compound: O=S(=O)(F)c1nc2ccccc2s1
Ratio IC50 [8]: 7 | IC50 [5]: 11 µM | IC50 [6]: 81 µM | Ratio IC50 [9]: 7 | Ratio IC50 [10]: 7

Compound: COc1ccc2[nH]c(S)nc2c1
Activity [1]: 97%

Compound: N#Cc1nc2cccc(Cl)c2o1
IC50 [5]: 10 µM | IC50 [6]: 93 µM

Compound: CC(=O)Nc1ccc2[nH]c(=S)[nH]c2c1
Activity [1]: 57%

Compound: Cn1c(=S)[nH]c2c(Cl)cccc21
Activity [15]: 50%

Compound: Nc1ccc2[nH]c(S)nc2c1
Activity [1]: 49%

Compound: Cc1ccc2nc(S)sc2c1
Activity [16]: 55% | solubility [17]: Insoluble

Compound: Cn1c(S)nc2ccc(Cl)cc21
IC50 [5]: 4.2 µM | Drug metabolism [11]: Metabolite_Notdetected | Drug metabolism [12]: Metabolite_Notdetected | Drug metabolism [13]: Metabolite_Notdetected | Drug metabolism [14]: Metabolite_Notdetected | Activity [2]: 94% | Drug metabolism [3]: Metabolite_Detected

More lines, now with the values ahead:

Activity [1]: 80% | Activity [2]: 95% | Drug metabolism [3]: Metabolite_Notdetected
Compound: CCOc1ccc2[nH]c(S)nc2c1

inhibition [4]: Active | IC50 [5]: 9.1 µM | IC50 [6]: 45 µM
Compound: N#Cc1nc2ccc(Cl)cc2o1

Activity [1]: 84%
Compound: Cc1cccc2[nH]c(=S)[nH]c12

Drug metabolism [11]: Metabolite_Notdetected | Drug metabolism [12]: Metabolite_Notdetected | Drug metabolism [13]: Metabolite_Notdetected | Drug metabolism [14]: Metabolite_Notdetected | Activity [2]: 100% | Activity [15]: 80% | Drug metabolism [3]: Metabolite_Notdetected
Compound: Cn1c(S)nc2cc(Cl)ccc21

Activity [1]: 95%
Compound: Cc1ccc2[nH]c(=S)[nH]c2c1

Activity [16]: 39% | solubility [17]: Insoluble
Compound: Cn1c(=S)[nH]c2ccc(NC(=O)c3ccccc3)cc21

solubility [7]: Insoluble
Compound: Sc1nc2ccc(Cl)cc2s1

IC50 [5]: 62 µM | Drug metabolism [11]: Metabolite_Notdetected | Drug metabolism [12]: Metabolite_Notdetected | Drug metabolism [13]: Metabolite_Notdetected | Drug metabolism [14]: Metabolite_Notdetected | Activity [2]: 98% | Drug metabolism [3]: Metabolite_Notdetected
Compound: Sc1nc2cc(Cl)ccc2[nH]1
